Measurements reported in patent US6596290B2 (priority 2001, dated 2003).
Several values for one entry are separate records, joined by “and”; a condition that tells them apart may be missing. Equal entries are not always repeated. Where two headings read alike, the source gives them in different places.

Experiments:
S. aureus (MN8) = type: cell-based, Staphylococcus aureus
TSST-1 = type: cell-based, Staphylococcus aureus

## myreth-3-myristate [Cetiol]
S. aureus (MN8)
  CFU/mL × 10^8: 4.2 and 5.9 and 5.0
TSST-1
  ng TSST-1 per CFU: 371 ng TSST-1 per CFU and 196 ng TSST-1 per CFU and 200 ng TSST-1 per CFU
  ng TSST-1 per mL: 1556 ng TSST-1 per mL and 1147 ng TSST-1 per mL and 989 ng TSST-1 per mL

## CC1(O)CCC(C(C)(C)O)CC1 (centres unmarked) [p-menthane-1,8-diol]
S. aureus (MN8)
  CFU/mL: 2.0E + 09 CFU/mL
S. aureus (MN8); 0.7% test compound, Table 3
  Optical Density: 0.620
TSST-1
  Reduction of Toxin %: 78%
  ng TSST-1 per OD Unit: 792 ng TSST-1 per OD Unit

## CC(C)=CCC/C(C)=C/CO [Geraniol]
S. aureus (MN8)
  CFU/mL: 3.2E + 08 CFU/mL
S. aureus (MN8); 0.01% test compound, Table 3
  Optical Density: 0.0569
TSST-1
  Reduction of Toxin %: 99%
  ng TSST-1 per OD Unit: 26 ng TSST-1 per OD Unit

## CC(=O)/C=C/C1=C(C)CCCC1(C)C [Beta-ionone]
S. aureus (MN8)
  CFU/mL: 1.8E + 08 CFU/mL
  Optical Density: 0.688
TSST-1
  Reduction of Toxin %: 100%
  ng TSST-1 per OD Unit: none

## CC1CCC(C(C)C)C(O)C1 (centres unmarked) [Menthol]
S. aureus (MN8)
  effect on the growth of S. aureus cells: minimal, if any, effect
S. aureus (MN8); 0.1% test compound (in methanol), S. aureus MN8, 24 h, 600 nm
  Optical Density: 0.621
S. aureus (MN8); 24 h
  CFU/mL: 6.3E + 08 CFU/mL
TSST-1; 24 h
  ng TSST-1 per OD Unit: 33 ng TSST-1 per OD Unit

## C=CC(C)(O)CCC=C(C)C (centres unmarked) [Linalool]
S. aureus (MN8)
  CFU/mL: 2.0E + 09 CFU/mL
S. aureus (MN8); 0.01% test compound, Table 3
  Optical Density: 0.600
TSST-1
  Reduction of Toxin %: 88%
  ng TSST-1 per OD Unit: 421 ng TSST-1 per OD Unit
